# Legend:
# DENV-2 16681 strain = assay: DENV-2 antiviral assay (eGFP-labeled virus in Vero cells); type: cell-based, Dengue virus; conditions: DENV-2 16681 eGFP, MOI 0.5, 3 days
# Method: The antiviral activity of all the compounds of the invention was tested against DENV-2 16681 strain which was labeled with enhanced green fluorescent protein (eGPF; Table 1). The culture medium consists of minimal essential medium supplemented with 2% of heat-inactivated fetal calf serum, 0.04% gentamycin (50 mg/mL) and 2 mM of L-glutamine. Vero cells, obtained from ECACC, were suspended in culture medium and 25 μL was added to 384-well plates (2500 cells/well), which already contain the antiviral compounds. Typically, these plates contain a 4-fold serial dilution of 9 dilution steps of the test compound at 200 times the final concentration in 100% DMSO (200 nL). In addition, each compound concentration is tested in quadruplicate (final concentration range: 25 μM-0.00038 μM). Finally, each plate contains wells which are assigned as virus controls (containing cells and virus in the absence of compound), cell controls (containing cells in the absence of virus and compound) and medium controls (containing medium in the absence of cells, virus and compounds). To the wells assigned as medium control, 25 μL of culture medium was added instead of Vero cells. Once the cells were added to the plates, the plates were incubated for 30 minutes at room temperature to allow the cells to distribute evenly within the wells. Next, the plates were incubated in a fully humidified incubator (37° C., 5% CO2) until the next day. Then, DENV-2 strain 16681, labeled with eGFP, was added at a multiplicity of infection (MOI) of 0.5. Therefore, 15 μL of virus suspension was added to all the wells containing test compound and to the wells assigned as virus control. In parallel, 15 μL of culture medium was added to the medium and cell controls. Next, the plates were incubated for 3 days in a fully humidified incubator (37° C., 5% CO2). At the day of the read out, the eGFP fluorescence was measured using an automated fluorescence microscope at 488 nm (blue laser). Using an in-house LIMS system, inhibition dose response curves for each compound were calculated and the half maximal effective concentration (EC50) was determined. Therefore, the percent inhibition (I) for every test concentration is calculated using the following formula: I=100*(ST−SCC)/(SVC−SCC); ST, SCC and SVC are the amount of eGFP signal in the test compound, cell control and virus control wells, respectively. The EC50 represents the concentration of a compound at which the virus replication is inhibited with 50%, as measured by a 50% reduction of the eGFP fluorescent intensity compared to the virus control. The EC50 is calculated using linear interpolation.
# in vitro = type: cell-based; conditions: African green monkey, CC50
# Method: In parallel, the toxicity of the compounds was assessed on the same plates. Once the read-out for the eGFP signal was done, 10 μL of resazurin, a cell viability stain, was added to all wells of the 384-well plates. The resazurin assay is based on the reduction of the blue resazurin by NADH, produced by the cells, into the highly fluorescent product, resorufin. The formation of pink fluorescent resorufin is directly related to the number of viable cells in the well. The plates were incubated for an additional 5 hours in a fully humidified incubator (37° C., 5% CO2). Next, the plates were measured on an Infinite reader (Tecan) using an excitation wavelength of 530 nm. The half maximal cytotoxic concentration (CC50) was also determined, defined as the concentration required to reduce the resazurin conversion by 50% compared to that of the cell control wells. Finally, the selectivity index (SI) was determined for the compounds, which was calculated as followed: SI=CC50/EC50.
# [1] = Dengue virus, DENV2, Vero, 72 h
structure (smiles),measurement,setting,value
"COc1cc(NC(C(=O)c2c[nH]c3c(C)c(F)ccc23)c2ccc(F)cc2OC)cc(S(C)(=O)=O)c1 (racemic) [Compound 2, 2-(4-fluoro-2-methoxyphenyl)-1-(6-fluoro-7-methyl-1H-indol-3-yl)-2-((3-methoxy-5-(methylsulfonyl)phenyl)amino)ethanone]",EC50,DENV-2 16681 strain; [1],1.3 nM
same,CC50,in vitro,8000 nM
"COc1cc(NC(C(=O)c2c[nH]c3c(C)c(Cl)ccc23)c2ccc(F)cc2OC)cc(S(C)(=O)=O)c1 (racemic) [Compound 3, 1-(6-chloro-7-methyl-1H-indol-3-yl)-2-(4-fluoro-2-methoxyphenyl)-2-((3-methoxy-5-(methylsulfonyl)phenyl)amino)ethanone]",EC50,DENV-2 16681 strain; [1],0.58 nM
same,CC50,in vitro,7200 nM
"COc1cc(NC(C(=O)c2c[nH]c3cc(Cl)ccc23)c2ccc(F)cc2OC)cc(S(C)(=O)=O)c1 (racemic) [Compound 4, 1-(6-chloro-1H-indol-3-yl)-2-(4-fluoro-2-methoxyphenyl)-2-((3-methoxy-5-(methylsulfonyl)phenyl)amino)ethanone]",EC50,DENV-2 16681 strain; [1],1.1 nM
same,CC50,in vitro,6600 nM
"COc1cc(NC(C(=O)c2c[nH]c3cc(OC)ccc23)c2ccc(F)cc2OC)cc(S(C)(=O)=O)c1 (racemic) [Compound 5, 2-(4-fluoro-2-methoxyphenyl)-1-(6-methoxy-1H-indol-3-yl)-2-((3-methoxy-5-(methylsulfonyl)phenyl)amino)ethanone]",EC50,DENV-2 16681 strain; [1],2 nM
same,CC50,in vitro,24000 nM
"COc1cc(NC(C(=O)c2c[nH]c3cc(F)c(F)cc23)c2ccc(F)cc2OC)cc(S(C)(=O)=O)c1 (racemic) [Compound 7, 1-(5,6-difluoro-1H-indol-3-yl)-2-(4-fluoro-2-methoxyphenyl)-2-((3-methoxy-5-(methylsulfonyl)phenyl)amino)ethanone]",EC50,DENV-2 16681 strain; [1],1.5 nM
same,CC50,in vitro,5000 nM
"COc1cc(NC(C(=O)c2c[nH]c3c(C)cc(F)cc23)c2ccc(F)cc2OC)cc(S(C)(=O)=O)c1 (racemic) [Compound 8, 2-(4-fluoro-2-methoxyphenyl)-1-(5-fluoro-7-methyl-1H-indol-3-yl)-2-((3-methoxy-5-(methylsulfonyl)phenyl)amino)ethanone]",EC50,DENV-2 16681 strain; [1],2.8 nM
same,CC50,in vitro,7600 nM
"COc1cc(NC(C(=O)c2c[nH]c3cc(C)c(F)cc23)c2ccc(F)cc2OC)cc(S(C)(=O)=O)c1 (racemic) [Compound 9, 2-(4-fluoro-2-methoxyphenyl)-1-(5-fluoro-6-methyl-1H-indol-3-yl)-2-((3-methoxy-5-(methylsulfonyl)phenyl)amino)ethanone]",EC50,DENV-2 16681 strain; [1],1.6 nM
same,CC50,in vitro,8800 nM
"COc1cc(NC(C(=O)c2c[nH]c3cc(OC)c(C)cc23)c2ccc(F)cc2OC)cc(S(C)(=O)=O)c1 (racemic) [Compound 10, 2-(4-fluoro-2-methoxyphenyl)-2-((3-methoxy-5-(methylsulfonyl)phenyl)amino)-1-(6-methoxy-5-methyl-1H-indol-3-yl)ethanone]",EC50,DENV-2 16681 strain; [1],1.1 nM
same,CC50,in vitro,7800 nM
"COc1cc(NC(C(=O)c2c[nH]c3cc(OC)c(F)cc23)c2ccc(F)cc2OC)cc(S(C)(=O)=O)c1 (racemic) [Compound 11, 2-(4-fluoro-2-methoxyphenyl)-1-(5-fluoro-6-methoxy-1H-indol-3-yl)-2-((3-methoxy-5-(methylsulfonyl)phenyl)amino)ethanone]",EC50,DENV-2 16681 strain; [1],3 nM
same,CC50,in vitro,12000 nM
"COc1cc(NC(C(=O)c2c[nH]c3c(Cl)c(OC)ccc23)c2ccc(F)cc2OC)cc(S(C)(=O)=O)c1 (racemic) [Compound 12, 1-(7-chloro-6-methoxy-1H-indol-3-yl)-2-(4-fluoro-2-methoxyphenyl)-2-((3-methoxy-5-(methylsulfonyl)phenyl)amino)ethanone]",EC50,DENV-2 16681 strain; [1],0.6 nM
same,CC50,in vitro,> 25000 nM
"COc1cc(NC(C(=O)c2c[nH]c3c(F)c(F)ccc23)c2ccc(F)cc2OC)cc(S(C)(=O)=O)c1 (racemic) [Compound 13, 1-(6,7-difluoro-1H-indol-3-yl)-2-(4-fluoro-2-methoxyphenyl)-2-((3-methoxy-5-(methylsulfonyl)phenyl)amino)ethanone]",EC50,DENV-2 16681 strain; [1],1.4 nM
same,CC50,in vitro,7600 nM
"COc1cc(NC(C(=O)c2c[nH]c3cc(F)c(C)cc23)c2ccc(F)cc2OC)cc(S(C)(=O)=O)c1 (racemic) [Compound 14, 2-(4-fluoro-2-methoxyphenyl)-1-(6-fluoro-5-methyl-1H-indol-3-yl)-2-((3-methoxy-5-(methylsulfonyl)phenyl)amino)ethanone]",EC50,DENV-2 16681 strain; [1],1.5 nM
same,CC50,in vitro,5300 nM
"COc1cc(NC(C(=O)c2c[nH]c3ccc(C)cc23)c2ccc(F)cc2OC)cc(S(C)(=O)=O)c1 (racemic) [Compound 15, 2-(4-fluoro-2-methoxyphenyl)-2-((3-methoxy-5-(methylsulfonyl)phenyl)amino)-1-(5-methyl-1H-indol-3-yl)ethanone]",EC50,DENV-2 16681 strain; [1],1.5 nM
same,CC50,in vitro,7800 nM
"COc1cc(NC(C(=O)c2c[nH]c3cc(OC)c(Cl)cc23)c2ccc(F)cc2OC)cc(S(C)(=O)=O)c1 (racemic) [Compound 16, 1-(5-chloro-6-methoxy-1H-indol-3-yl)-2-(4-fluoro-2-methoxyphenyl)-2-((3-methoxy-5-(methylsulfonyl)phenyl)amino)ethanone]",EC50,DENV-2 16681 strain; [1],0.66 nM
same,CC50,in vitro,8800 nM
"COc1cc(NC(C(=O)c2c[nH]c3ccc(C(F)(F)F)cc23)c2ccc(F)cc2OC)cc(S(C)(=O)=O)c1 (racemic) [Compound 17, 2-(4-fluoro-2-methoxyphenyl)-2-((3-methoxy-5-(methylsulfonyl)phenyl)amino)-1-(5-(trifluoromethyl)-1H-indol-3-yl)ethanone]",EC50,DENV-2 16681 strain; [1],0.24 nM
same,CC50,in vitro,3500 nM
"COc1cc(NC(C(=O)c2c[nH]c3ccc(OC(F)(F)F)cc23)c2ccc(F)cc2OC)cc(S(C)(=O)=O)c1 (racemic) [Compound 18, 2-(4-fluoro-2-methoxyphenyl)-2-((3-methoxy-5-(methylsulfonyl)phenyl)amino)-1-(5-(trifluoromethoxy)-1H-indol-3-yl)ethanone]",EC50,DENV-2 16681 strain; [1],0.25 nM
same,CC50,in vitro,3300 nM
"COc1cc(NC(C(=O)c2c[nH]c3cc(OC)ccc23)c2ccc(F)cc2OC)cc(S(C)(=O)=O)c1 (single isomer, unassigned) [Enantiomer 5A, 2-(4-fluoro-2-methoxyphenyl)-1-(6-methoxy-1H-indol-3-yl)-2-((3-methoxy-5-(methylsulfonyl)phenyl)amino)ethanone]",EC50,DENV-2 16681 strain; listed as 5A,70 nM
same,CC50,in vitro,24000 nM
"COc1cc(NC(C(=O)c2c[nH]c3c(F)c(F)ccc23)c2ccc(F)cc2OC)cc(S(C)(=O)=O)c1 (single isomer, unassigned) [Enantiomer 13A, 1-(6,7-difluoro-1H-indol-3-yl)-2-(4-fluoro-2-methoxyphenyl)-2-((3-methoxy-5-(methylsulfonyl)phenyl)amino)ethanone]",EC50,DENV-2 16681 strain; listed as 13A,17 nM
same,CC50,in vitro,9500 nM
